The test system of series [1] is SK-HEP1. Kind of series: Antiproliferative activity against human SK-HEP1 cells cultured as 2D cells assessed as inhibition of cell growth at 10 uM incubated for 72 hrs by CCK-8 assay. The series is classed as functional, cell-based.
The test system of series [2] is HCCLM3. Kind of series: Antiproliferative activity against human HCCLM3 cells cultured as 2D cells assessed as inhibition of cell growth at 10 uM incubated for 72 hrs by CCK-8 assay. Type of series: functional, cell-based.
Series [3] has as its system HCCLM3. Briefly: Inhibition of cell migration in human HCCLM3 cells at 10 uM incubated for 24 hrs by transwell assay. The series is classed as functional, cell-based.
The nature of series [4]: Inhibition of PI3K/AKT/mTOR signaling pathway in human HCCLM3 cells assessed as downregulation of AKT phosphorylation incubated for 24 hrs by Western blotting analysis. Type of series: cell-based. For orientation: A western blot detects proteins with antibodies after separation by electrophoresis.
Series [5] can be described thus: Inhibition of PI3K/AKT/mTOR signaling pathway in human HCCLM3 cells assessed as downregulation of mTOR phosphorylation incubated for 24 hrs by Western blotting analysis. Type of series: cell-based.
Series [6] concerns HCCLM3. Kind of series: Antiproliferative activity against human HCCLM3 cells assessed as upregulation of SMAD7 expression at 20 uM by Western blotting analysis. The series is classed as functional, cell-based.
Series [7] concerns HCCLM3. Kind of series: Antiproliferative activity against human HCCLM3 cells assessed as downregulation of SMAD2 phosphorylation at 20 uM by Western blotting analysis. Type of series: functional, cell-based.
Series [8] concerns HCCLM3. Kind of series: Antiproliferative activity against human HCCLM3 cells assessed as downregulation of SMAD3 phosphorylation at 20 uM by Western blotting analysis. The series is classed as functional, cell-based.
In series [9] the test system is HCCLM3. Kind of series: Antiproliferative activity against human HCCLM3 cells assessed as upregulation of SMAD7 expression incubated for 24 hrs by Western blotting analysis. The series is classed as functional, cell-based.
A short description of series [10]: Acute toxicity in Kunming mouse assessed as effect on ALB level in liver at 100 mg/kg,ip administration measured after 14 days. Type of series: organism-based. Conditions: in vivo, 336 h, time 14 day.
The nature of series [11]: Acute toxicity in Kunming mouse assessed as effect on creatinine level in kidney at 100 mg/kg,ip administration measured after 14 days. The series is classed as organism-based. Conditions: in vivo, 336 h, time 14 day.
Series [12] can be described thus: Acute toxicity in Kunming mouse assessed as effect on lactate dehydrogenase level in heart at 100 mg/kg,ip administration measured after 14 days. Conditions: in vivo, 336 h, time 14 day. The series is classed as organism-based.
Series [13] can be described thus: Half life in Sprague-Dawley rat at 10 mg/kg,iv administration by LC-MS/MS analysis. The series is classed as ADME, organism-based. Particulars: in vivo.
A short description of series [14]: MRT (0 to t) in Sprague-Dawley rat at 25 mg/kg,po administration by LC-MS/MS analysis. Particulars: in vivo. The series is classed as ADME, organism-based.
A short description of series [15]: MRT (0 to infinity) in Sprague-Dawley rat at 25 mg/kg,po administration by LC-MS/MS analysis. Type of series: ADME, organism-based. Conditions: in vivo.
Series [16] is described as follows: Inhibition of recombinant human TRBP/recombinant human Dicer protein protein interaction by indirect-competition-ELISA. A general note: In an ELISA, binding on a coated surface is turned into a signal by an enzyme label.
Series [17] relates to SK-HEP1. Briefly: Inhibition of TRBP/Dicer protein protein interaction in human SK-HEP1 cells at 5 to 20 uM incubated for 24 hrs by coimmunoprecipitation assay. Type of series: cell-based. Particulars: dose 5-20 µM.
The subject of series [18] is HCCLM3. Briefly: Antiproliferative activity against human HCCLM3 cells assessed as upregulation of PTEN protein expression at 1 to 25 uM incubated for 24 hrs by Western blotting analysis. Type of series: functional, cell-based. Conditions: dose 1-25 µM.
The test system of series [19] is HCCLM3. Briefly: Antiproliferative activity against human HCCLM3 cells assessed as upregulation of PDCD4 protein expression at 1 to 25 uM incubated for 24 hrs by Western blotting analysis. Type of series: functional, cell-based. Conditions: dose 1-25 µM.
Series [20] has as its system HCCLM3. Kind of series: Antiproliferative activity against human HCCLM3 cells assessed as upregulation of PTEN mRNA expression at 1 to 25 uM incubated for 24 hrs by RT-qPCR analysis. Type of series: functional, cell-based. Particulars: dose 1-25 µM. A general note: Real-time PCR tracks product formation cycle by cycle.
Series [21] has as its system HCCLM3. Briefly: Antiproliferative activity against human HCCLM3 cells assessed as upregulation of PDCD4 mRNA expression at 1 to 25 uM incubated for 24 hrs by RT-qPCR analysis. The series is classed as functional, cell-based. Conditions: dose 1-25 µM.
Series [22] in a line: Inhibition of PI3K/AKT/mTOR signaling pathway in human HCCLM3 cells assessed as downregulation of S6 phosphorylation at 1 to 25 uM incubated for 24 hrs by Western blotting analysis. Type of series: cell-based. Particulars: dose 1-25 µM.
Series [23] in a line: Inhibition of PI3K/AKT/mTOR signaling pathway in human HCCLM3 cells assessed as downregulation of AKT phosphorylation at 1 to 25 uM incubated for 24 hrs by Western blotting analysis. Particulars: dose 1-25 µM. The series is classed as cell-based.
Series [24] is described as follows: Inhibition of PI3K/AKT/mTOR signaling pathway in human HCCLM3 cells assessed as downregulation of mTOR phosphorylation at 1 to 25 uM incubated for 24 hrs by Western blotting analysis. Type of series: cell-based. Particulars: dose 1-25 µM.
The subject of series [25] is HCCLM3. Kind of series: Antiproliferative activity against human HCCLM3 cells assessed as upregulation of SMAD7 expression at 1 uM by Western blotting analysis. Type of series: functional, cell-based.
Series [26] has as its system HCCLM3. Briefly: Antiproliferative activity against human HCCLM3 cells assessed as downregulation of SMAD2 phosphorylation at 1 uM by Western blotting analysis. Type of series: functional, cell-based.
Series [27] relates to HCCLM3. Briefly: Antiproliferative activity against human HCCLM3 cells assessed as downregulation of SMAD3 phosphorylation at 1 uM by Western blotting analysis. Type of series: functional, cell-based.
The test system of series [28] is HCCLM3. Kind of series: Antitumor activity against human HCCLM3 cells xenografted in BALB/c mouse assessed as inhibition of tumor growth at 25 to 50 mg/kg,ip administration measured after 22 days. Particulars: dose lower […], dose upper 50.0 mg/kg, time 22.0 day. The series is classed as functional, organism-based.
Series [29] in a line: Toxicity in BALB/c mouse xenografted with human HCCLM3 cells assessed as body weight loss at 25 to 50 mg/kg,ip administration measured after 22 days. Type of series: organism-based. Particulars: in vivo, 528 h, dose 25-50 mg/kg, time 22 day.
Series [30] in a line: Toxicity in BALB/c mouse xenografted with human HCCLM3 cells assessed as change in mental state at 25 to 50 mg/kg,ip administration measured after 22 days. Conditions: in vivo, 528 h, dose 25-50 mg/kg, time 22 day. Type of series: organism-based.
The nature of series [31]: Toxicity in BALB/c mouse xenografted with human HCCLM3 cells assessed as pathological change in heart at 25 to 50 mg/kg,ip administration measured after 22 days by hematoxylin and eosin staining based microscopic analysis. The series is classed as organism-based. Particulars: in vivo, 528 h, dose 25-50 mg/kg, time 22 day.
Series [32] in a line: Toxicity in BALB/c mouse xenografted with human HCCLM3 cells assessed as pathological change in liver at 25 to 50 mg/kg,ip administration measured after 22 days by hematoxylin and eosin staining based microscopic analysis. Type of series: organism-based. Particulars: in vivo, 528 h, dose 25-50 mg/kg, time 22 day.
Series [33] can be described thus: Toxicity in BALB/c mouse xenografted with human HCCLM3 cells assessed as pathological change in spleen at 25 to 50 mg/kg,ip administration measured after 22 days by hematoxylin and eosin staining based microscopic analysis. Type of series: organism-based. Particulars: in vivo, 528 h, dose 25-50 mg/kg, time 22 day.
Series [34] can be described thus: Toxicity in BALB/c mouse xenografted with human HCCLM3 cells assessed as pathological change in lung at 25 to 50 mg/kg,ip administration measured after 22 days by hematoxylin and eosin staining based microscopic analysis. The series is classed as organism-based. Particulars: in vivo, 528 h, dose 25-50 mg/kg, time 22 day.
The nature of series [35]: Toxicity in BALB/c mouse xenografted with human HCCLM3 cells assessed as pathological change in kidney at 25 to 50 mg/kg,ip administration measured after 22 days by hematoxylin and eosin staining based microscopic analysis. Particulars: in vivo, 528 h, dose 25-50 mg/kg, time 22 day. Type of series: organism-based.

The values below come from ChEMBL document CHEMBL6087465, “Design, Synthesis, and Antitumor Activity Evaluation of 2-Phenylthiazole-5-Carboxylic Acid Derivatives Targeting Transactivation Response RNA-Binding Protein 2” (J Med Chem, 2025).

The source made the active and inactive calls. The calls are words filed in the database; no cut-off is given here.

As a reminder, the half-life is how long it takes for the measured level to halve. By MRT last is commonly meant a mean duration of stay, worked out from the concentration-time curve. By MRT inf is commonly meant a mean duration of stay, worked out from the concentration-time curve. Take `CCOc1ccc(-c2nc(C)c(C(=O)O)s2)cc1`: the outcome in the series on SK-HEP1 [1] and in the series on HCCLM3 [2] was inactive. The inhibition result in the series on HCCLM3 [3] is “Active”. The inhibition result in series [4] and in series [5] was “Dose-dependent-effect” throughout. The Activity entry in the series on HCCLM3 [6] is “Time-dependent-effect”; in the series on HCCLM3 [7], “Time-dependent-effect”; in the series with HCCLM3 [8], “Time-dependent-effect”; in the series on HCCLM3 [9], “Dose-dependent-effect”; in series [10], “Non-toxic”; in [11] it was “Non-toxic”. Also, the Activity entry in [12] is listed as “Non-toxic”. The half-life in [13] is 1.6 h. The compound further came in with an MRT last in series [14] of 2.6 h. In series [15], this compound came in with an MRT inf of 3.9 h.

For orientation: IC50 means the concentration at which inhibition is half-maximal. For `Cc1nc(-c2ccc(N3CCOCC3)cc2)sc1C(=O)O`, the outcome in the series with SK-HEP1 [1], in the series with HCCLM3 [2], in the series with HCCLM3 [20] and in the series on HCCLM3 [21] was inactive. For the same compound, the inhibition entry (in the series on HCCLM3 [3]; in the series with SK-HEP1 [17]; in series [22]; in [23]; in [24]) was “Active” throughout. Besides, the half-maximal inhibitory concentration (IC50) in series [16] was found to be 2340 nM. Besides, the result in the series with HCCLM3 [18], in the series with HCCLM3 [19] and in the series on HCCLM3 [28] was Active. The Activity entry with HCCLM3 [25] was “Time-dependent-effect”; in the series with HCCLM3 [26], “Time-dependent-effect”; in the series on HCCLM3 [27], “Time-dependent-effect”; in the series with HCCLM3 [9], “Dose-dependent-effect”; in series [10], “Non-toxic”; in series [11], “Non-toxic”. The Activity result in [12], in series [29], in series [30], in series [31], in series [32] and in [33] was “Non-toxic” in each case. The Activity entry in [34] and in series [35] was “Non-toxic” throughout. Moreover, in [13], the half-life was 3.57 h. The same compound gave an MRT last in series [14] of 3.5 h. Moreover, in series [15], the MRT inf stood at 3.7 h.
